One test concerns URAT1CS. In kind it is cell-based. Conditions: HEK293T cells expressing hURAT1 versus URAT1CS.
In a further test the target is T1, hURAT1 (Homo sapiens, UniProt Q96S37).
T1 sequence (Q96S37 1-553): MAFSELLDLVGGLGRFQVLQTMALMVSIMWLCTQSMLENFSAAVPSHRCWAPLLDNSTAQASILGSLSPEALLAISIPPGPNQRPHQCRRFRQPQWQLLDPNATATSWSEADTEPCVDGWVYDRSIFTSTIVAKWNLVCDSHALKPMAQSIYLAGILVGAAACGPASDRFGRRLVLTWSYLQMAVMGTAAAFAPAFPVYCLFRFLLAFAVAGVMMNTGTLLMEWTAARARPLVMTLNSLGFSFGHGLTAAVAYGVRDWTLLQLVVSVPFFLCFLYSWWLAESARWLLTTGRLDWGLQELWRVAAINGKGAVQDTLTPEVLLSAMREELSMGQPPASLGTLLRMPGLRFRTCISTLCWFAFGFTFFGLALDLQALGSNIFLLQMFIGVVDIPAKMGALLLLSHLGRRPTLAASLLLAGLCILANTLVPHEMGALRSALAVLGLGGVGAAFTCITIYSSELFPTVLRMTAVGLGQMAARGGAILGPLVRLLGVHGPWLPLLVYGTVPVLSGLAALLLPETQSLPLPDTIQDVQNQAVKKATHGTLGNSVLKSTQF
In kind it is cell-based. Conditions: for KT urate / Vmax: fit of the data set with this inhibitor, 95% CI; for Mode of inhibition of [14C]-urate uptake: competitive versus non-competitive fits.

This is an account of results in PMC12137875 (Nature Communications, 2025).

Molecules are shown by their SMILES. Like-named read-outs stand apart in the source and are kept apart here.

Regarding `CCc1oc2ccccc2c1C(=O)c1cc(Br)c(O)c(Br)c1` [BBR, benzbromarone], in the test on URAT1CS, the “Inhibitor binding to URAT1CS as judged from IC50” value is on record as “high affinity”. Also, the values for the KT urate at hURAT1 (Competitive model) and at hURAT1 (Non-competitive model) were 26.08 [11.29–48.59] µM and 32.4 [20.7–47.9] µM, respectively. In addition, the Vmax on hURAT1 (Competitive model) was 1591 [1355–1846] pmol min^−1 mg^−1; at hURAT1 (Non-competitive model) it was 1700 [1530–1881] pmol min^−1 mg^−1. Moreover, at hURAT1, the “Mode of inhibition of [14C]-urate uptake” value is “non-competitively”.

`O=C(O)CSc1nnc(Br)n1-c1ccc(C2CC2)c2ccccc12` [LESU, lesinurad]: at hURAT1 (Competitive model), the KT urate is 162.8 [126.4–210.1] µM and the Vmax was 3625 [3335–3955] pmol min^−1 mg^−1. Also, at hURAT1 (Non-competitive model), the KT urate is 175.1 [148.8–206.5] µM and the Vmax is 3725 [3522–3947] pmol min^−1 mg^−1. Further, the “Mode of inhibition of [14C]-urate uptake” value on hURAT1 was “non-competitively”.
